Measurements reported in PMC7230232, “Secondary Metabolites from the Culture of the Marine-derived Fungus Paradendryphiella salina PC 362H and Evaluation of the Anticancer Activity of Its Metabolite Hyalodendrin” (Marine Drugs, 2020).
Several values for one entry are separate records, joined by “and”; a condition that tells them apart may be missing. Equal entries are not always repeated. Where two headings read alike, the source gives them in different places.

Assays:
3T3-F442A cells = assay: MTT cell viability assay, 3T3-F442A pre-adipocytes; format: cell-based, murine; settings: Mus musculus
Procedure: (§1) Cellular viability was determined by the MTT (methylthiazolyldiphenyl-tetrazolium bromide) assay. Briefly, cells were exposed to the indicated concentrations of crude extracts or compounds 1–4 for five doubling times and then incubated for 3 h at 37 °C with MTT. Formazan crystals were then dissolved in DMSO and optical density measured at 570 nm in a microplate reader. The half-maximal inhibitory concentration (IC50) was determined. Values given for crude extracts are averages of at least two experiments done in duplicate. IC50 values calculated for the four isolated compounds and the commercially available 4-hydroxy-tamoxifen (Sigma-Aldrich) are averages of at least three experiments done in duplicate.

HCT116 = assay: MTT cell viability assay, HCT116; format: cell-based; settings: Homo sapiens, HCT-116; colon
Procedure: as §1

HCT116 SN-38 = assay: MTT cell viability assay, HCT116 SN-38; format: cell-based; settings: Homo sapiens, HCT-116; colon; SN-38 resistant
Procedure: as §1

[1] = molecular target: cytoplasmic GAPDH from Arabidopsis thaliana (AtGAPDH) (Arabidopsis thaliana, UniProt P25858); assay: Covalent adduct formation with GAPDH by MALDI-TOF mass spectrometry; format: binding; settings: data not shown
Source text: Compound 3 is a member of the epidithiodioxopiperazines, a class of natural products characterized by a sulfur-bridged dioxopiperazine that is believed to play an important role in their biological activity. […] The role of the sulfur-bridged dioxopiperazine in the activity of epidithiodioxopiperazines has been attributed to two main mechanisms: (1) mixed disulfide formation with proteins and (2) production of reactive oxygen species (ROS) upon the formation of the disulfide bond after reduction by a cellular reductant. […] To test whether 3 might act through these two processes, we first assessed its propensity to form in vitro covalent adducts with the glycolytic glyceraldehyde-3-phosphate dehydrogenase enzyme (GAPDH). GAPDH is a widely used model protein to study molecular mechanism of thiol-based post-translational modifications as its catalytic cysteine is prone to multiple reversible and irreversible oxidation states. […] Trxs are small ubiquitous thiol/disulfide oxidoreductases with multiple recognized roles in cellular processes and human diseases including cancers. However, since mammal NTR is a selenoprotein that is not easily produced recombinantly, we used here the thioredoxin system from the eukaryotic yeast Saccharomyces cerevisiae (Figure 6). […]

MCF7-Sh-WISP2 cells = assay: Intracellular signaling array and immunoblotting; format: cell-based, human
Procedure: MCF7-Sh-WISP2 cells were treated for 48 h with 2.8 µM of 3 (corresponding to 3.8 × 10^−5 nmol of drug per cell), harvested and lysed on ice for 5 min with 0.5 mL of cell lysis buffer containing a cocktail of protease inhibitors. The lysates were centrifuged at 14,000 g for 1 min at 4 °C. Intracellular signaling molecules were detected using a PathScan® intracellular signaling array kit (# 7323, Cell Signaling Technology) according to the manufacturer’s procedure. The chemiluminescent images of the slide were captured with the Chemidoc system (Biorad).
MCF7-Sh-WISP2 cells were incubated for 72 h at 37 °C with 2.4 µM of 3 (corresponding to 3.8 × 10^−5 nmol of drug per cell). Cells were then washed twice with Phosphate-Buffer Saline (PBS) 1X and lysed for 30 min in RIPA buffer (150 mM NaCl, 1.0% IGEPAL® CA-630, 0.5% sodium deoxycholate, 0.1% SDS, 50 mM Tris, pH 8.0). Proteins (20 µg) were resolved on sodium dodecyl sulfate polyacrylamide gel (SDS/PAGE) (12%) and blotted onto nitrocellulose membranes (Bio-Rad). […] Antigens were detected using an enhanced chemiluminescence kit (Biorad) using the Chemidoc system (Biorad). Protein quantitation was calculated using Image Lab software developed by Bio-Rad.

Sequence of cytoplasmic GAPDH from Arabidopsis thaliana (AtGAPDH) (P25858 whole entry): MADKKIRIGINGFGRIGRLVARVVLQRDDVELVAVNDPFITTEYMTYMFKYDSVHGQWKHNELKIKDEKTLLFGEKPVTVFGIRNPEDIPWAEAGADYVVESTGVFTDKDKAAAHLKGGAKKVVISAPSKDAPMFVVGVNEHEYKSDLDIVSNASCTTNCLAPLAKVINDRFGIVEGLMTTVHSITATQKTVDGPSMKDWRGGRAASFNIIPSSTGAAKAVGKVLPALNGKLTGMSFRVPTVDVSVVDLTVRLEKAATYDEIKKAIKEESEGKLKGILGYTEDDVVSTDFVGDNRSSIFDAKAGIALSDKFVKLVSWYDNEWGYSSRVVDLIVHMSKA

With `CN1C(=O)[C@@]2(Cc3ccccc3)SS[C@]1(CO)C(=O)N2C` [Compound 3, (3R, 6R) Hyalodendrin] the IC50 (3T3-F442A cells; read-out: IC50 3T3-F442A) was 0.099 µg/mL and 300 nM, the IC50 (3T3-F442A cells; read-out: IC50 3T3F442A) was 305 ± 4.2 nM and the IC50 (HCT116) was 48 ± 9.3 nM. The IC50 (HCT116 SN-38) was 43.8 ± 4.2 nM, the “mixed disulfide formation with catalytic cysteine of AtGAPDH (mass shift)” value [1] was “not able to form a mixed disulfide” and the “phosphorylation of p53 on serine 15” value (MCF7-Sh-WISP2 cells; 2.8 µM for 48 h (array), 2.4 µM for 72 h (Western blot)) was “increased phosphorylation”. The “PRAS40 protein expression levels” value (MCF7-Sh-WISP2 cells; Western blot, 2.4 µM for 72 h) was “general decrease” and the “cleavage of PARP or caspase-3” value (MCF7-Sh-WISP2 cells; signaling array) was “no cleavage”.
